We go through 49 compounds from patent US20100081693A1, “T[…] AND USE THEREOF” (priority 2006, published 2010).

Read-outs that look alike come from different tables or passages of the source.

Common to all, as to format: in vivo
Assay [1] relates to Tetranychus urticae. Put plainly: Test Example 4: spray test on Tetranychus urticae on vineless common bean. Particulars: 192 h, read-out: Controlling rate (%). The method, then:
Each of present compounds (1) to (3), (5), (17), (39), (55) to (57), (120) to (124), (129), (130), (135), (136), (139) to (141), (232), (236), (243), (255), (262), and the comparative compound (A) was formulated into a preparation according to Preparation Example 5. This preparation was diluted with water so that the concentration of the present compound or the comparative compound (A) became 500 ppm.
Meanwhile, about 60 Tetranychus urticae female imagoes were released on a vineless common bean plantlet (7 days after seeding, first leaf development phase) planted in a plastic cup, which was allowed to stand for 1 day. To this plantlet was sprayed 20 ml of each of the above diluted solutions.
Eight days after spraying, the number of surviving mites on a leaf of the vineless common bean was investigated, and a controlling rate was calculated according to the following equation.
Controlling rate (%)=100×{1−(number of surviving mites of treated group)/(number of surviving mites of non-treated group)}

The test system of assay [2] is cotton aphids. Put plainly: Test Example 2: soil immersion treatment of cucumber, cotton aphids inoculated afterwards. The conditions noted are these: 144 h, 500 ppm test solution (5 ml + 40 ml water), aphids inoculated after 7 days, counted 6 days later, 25° C., read-out: Controlling value (%). The method, then: Into a beer cup were poured 5 ml of the test diluted solution and 40 ml of water, where a cucumber planted in a polyethylene cup and grown to develop a first true leaf was accommodated, and the soil part was subjected to immersion-treatment. The plant was retained in a greenhouse at 25° C. for 7 days, 30 cotton aphids (all stages) were inoculated on a cucumber leaf surface, the plant was further retained in a greenhouse at 25° C. for 6 days, the number of surviving worms of cotton aphids parasitized on the leaf surface was investigated, and a controlling value was calculated according to the following equation.
(§1) Controlling value (%)={1−(Cb×Tai)/(Cai×Tb)}×100
(§2) Cb is the number of worms before treatment of a non-treated group.
(§3) Cai is the number of worms at observation of a non-treated group.
(§4) Tb is the number of worms before treatment of a treated group.
(§5) Tai is the number of worms at observation of a treated group.

The test system of assay [3] is tobacco whitefly. As to the kind of experiment: Test Example 3: spray test on tobacco whitefly larvae on cabbage. Particulars: 168 h, sprayed on cabbage at 20 ml/cup, hatched larvae, seven days after spraying, read-out: Controlling value (%).
In assay [4] the test system is cotton aphids. Put plainly: Test Example 1: spray test on cotton aphids parasitized on cucumber. The conditions noted are these: 144 h; 500 ppm active ingredient, sprayed on cucumber at 20 ml/cup, six days after spraying; read-out: Controlling value (%). The method, then: On the other hand, a cucumber was planted in a polyethylene cup, and grown until a first true leaf was developed, and 30 cotton aphids were parasitized thereon. One day after, the test spray solution was sprayed to the cucumber at a ratio of 20 ml/cup. Six days after spraying, the number of cotton aphids was investigated, and a controlling value was calculated according to the following equation.
as §1, §2, §3, §4, §5

[5] abbreviates: 500 ppm, 20 ml sprayed on common bean plantlet, female imagoes, eight days after spraying.

As to `O=C(Sc1nsc(OC2COCOC2)n1)N1CCOCC1` [(130)], the pest or weed control at 500 ppm in assay [1] (setting [5]) and in assay [2] was not below 90% throughout.

On to `C#CCOc1nc(SC(=O)N(C)C)ns1` [(7)], for which, in assay [3], the pest or weed control at 500 ppm was not below 90%.

As for `CCOc1nc(SC(=O)N2CCOCC2)ns1` [(122)], in assay [3], the pest or weed control at 500 ppm is not below 90%.

With `CCOC(CCOc1nc(SC(=O)N(C)C)ns1)OCC` [(201)], the pest or weed control at 500 ppm in assay [3], in assay [2] and in assay [4] was not below 90% in each case.

Regarding `C=CCOc1nc(SC(=O)N(C)C)ns1` [(255)], in assay [1] (setting [5]), the pest or weed control at 500 ppm was not below 90%.

As to `C=CCCCOc1nc(SC(=O)N(C)C)ns1` [(34)], the pest or weed control at 500 ppm in assay [3], in assay [2] and in assay [4] was not below 90% throughout.

In the case of `C#CCC(C)Oc1nc(SC(=O)N(C)C)ns1` (stereo not shown) [(38)], the pest or weed control at 500 ppm in assay [3] is not below 90%.

Regarding `CN(C)C(=O)Sc1nsc(OCc2ccsc2)n1` [(74)], the pest or weed control at 500 ppm in assay [4] is not below 90%.

Regarding `CN(C)C(=O)Sc1nsc(OCCOCC(F)(F)F)n1` [(232)], in assay [1] (setting [5]), the pest or weed control at 500 ppm is not below 90%.

Take `Cc1nn(C)c(Oc2nc(SC(=O)N(C)C)ns2)c1C` [(218)]: in assay [2], the pest or weed control at 500 ppm is not below 90%.

On to `CN(C)C(=O)Sc1nsc(OCC(C)(C)CCl)n1` [(52)], for which, in assay [3], the pest or weed control at 500 ppm is not below 90%.

Turning to `CN(C)C(=O)Sc1nsc(OCCCCOc2nc(SC(=O)N(C)C)ns2)n1` [(206)], the pest or weed control at 500 ppm in assay [3] was not below 90%.

Turning to `CN(C)C(=O)Sc1nsc(OCCCCl)n1` [(49)], the pest or weed control at 500 ppm in assay [3] and in assay [2] was not below 90% each time.

Take `CC1(C)OCC(COc2nc(SC(=O)N3CCOCC3)ns2)O1` (stereo not shown) [(119)]: the pest or weed control at 500 ppm in assay [3] was not below 90%.

Turning to `C[C@H](Oc1nc(SC(=O)N2CCCC2)ns1)[C@H]1COC(C)(C)O1` [(262)], the pest or weed control at 500 ppm in assay [1] (setting [5]) was not below 90%.

For the compound `CN(C)C(=O)Sc1nsc(OCc2ccccn2)n1` [(215)], the pest or weed control at 500 ppm in assay [3] is not below 90%.

With `CC#CCOc1nc(SC(=O)N(C)C)ns1` [(8)], in assay [3], the pest or weed control at 500 ppm is not below 90%.

`CN(C)C(=O)Sc1nsc(OCc2cccc(Cl)c2Cl)n1` [(99)]: the pest or weed control at 500 ppm in assay [4] is not below 90%.

`CN(C)C(=O)Sc1nsc(OCc2c(Cl)cccc2Cl)n1` [(102)]: the pest or weed control at 500 ppm in assay [4] was not below 90%.

For the compound `CN(C)C(=O)Sc1nsc(OCC(F)(F)C(F)(F)F)n1` [(59)], the pest or weed control at 500 ppm in assay [3], in assay [2] and in assay [4] was not below 90% each time.

In the case of `CN(C)C(=O)Sc1nsc(OCc2cccc(F)c2)n1` [(79)], the pest or weed control at 500 ppm in assay [2] is not below 90%.

With `CN(C)C(=O)Sc1nsc(OCCC(C)(C)C)n1` [(33)], the pest or weed control at 500 ppm in assay [4] is not below 90%.

With `CN(C)C(=O)Sc1nsc(OCC(C)(C)C)n1` [(31)], the pest or weed control at 500 ppm in assay [3] was not below 90%.

Turning to `CN(C)C(=O)Sc1nsc(OCC(F)(F)C(F)(F)C(F)(F)F)n1` [(62)], the pest or weed control at 500 ppm in assay [2] and in assay [4] was not below 90% in each case.

In the case of `CCCOc1nc(OC(=O)N(C)C)ns1` [comparative compound (A), reference compound], the pest or weed control at 500 ppm in assay [3] and in assay [1] was 0% each time.

For the compound `COCC(C)Oc1nc(SC(=O)N(C)C)ns1` (stereo not shown) [(236)], in assay [1] (setting [5]), the pest or weed control at 500 ppm is not below 90%.

As for `CN(C)C(=O)Sc1nsc(OCc2ccccc2)n1` [(211)], the pest or weed control at 500 ppm in assay [3] and in assay [4] was not below 90% throughout.

Take `CN(C)C(=O)Sc1nsc(OCCCOc2nc(SC(=O)N(C)C)ns2)n1` [(204)]: the pest or weed control at 500 ppm in assay [4] was not below 90%.

`CCOc1nc(SC(=O)N2CCCC2)ns1` [(136)]: in assay [1] (setting [5]), the pest or weed control at 500 ppm was not below 90%.

Take `CC(Oc1nc(SC(=O)N(C)C)ns1)C(F)(F)C(F)(F)F` (stereo not shown) [(61)]: the pest or weed control at 500 ppm in assay [3], in assay [2] and in assay [4] was not below 90% each time.

Consider `O=C(Sc1nsc(OCC2COCO2)n1)N1CCOCC1` (stereo not shown) [(129)], for which the pest or weed control at 500 ppm in assay [1] (setting [5]) and in assay [2] was not below 90% in each case.

For `CCCOc1nc(SC(=O)N2CCOCC2)ns1` [(120)], the pest or weed control at 500 ppm in assay [3] is not below 90%.

Take `CN(C)C(=O)Sc1nsc(OCCCCCl)n1` [(50)]: the pest or weed control at 500 ppm in assay [2] is not below 90%.

`CC#CCOc1nc(SC(=O)N2CCOCC2)ns1` [(125)]: the pest or weed control at 500 ppm in assay [2] is not below 90%.

For `COc1nc(SC(=O)N2CCCC2)ns1` [(135)], the pest or weed control at 500 ppm in assay [1] (setting [5]) was not below 90%.

Consider `CCC(Oc1nc(SC(=O)N(C)C)ns1)C(C)(C)C` (stereo not shown) [(64)], for which the pest or weed control at 500 ppm in assay [4] is not below 90%.

For the compound `C#CC(C)Oc1nc(SC(=O)N(C)C)ns1` (stereo not shown) [(39)], the pest or weed control at 500 ppm in assay [3] and in assay [1] (setting [5]) was not below 90% each time.

For `CN(C)C(=O)Sc1nsc(OCc2ccc(C(F)(F)F)cc2C(F)(F)F)n1` [(112)], in assay [3], the pest or weed control at 500 ppm is not below 90%.

Turning to `COCC(COc1nc(SC(=O)N(C)C)ns1)OC` (stereo not shown) [(277)], the pest or weed control at 500 ppm in assay [2] was not below 90%.

`CN(C)C(=O)Sc1nsc(OCCOc2nc(SC(=O)N(C)C)ns2)n1` [(225)]: the pest or weed control at 500 ppm in assay [4] was not below 90%.

As for `CN(C)C(=O)Sc1nsc(OCCCn2cccn2)n1` [(19)], the pest or weed control at 500 ppm in assay [2] was not below 90%.

On to `O=C(Sc1nsc(OCC2CCOC2)n1)N1CCOCC1` (stereo not shown) [(127)], for which the pest or weed control at 500 ppm in assay [2] was not below 90%.

On to `CN(C)C(=O)Sc1nsc(OCc2ccc(Cl)c(Cl)c2)n1` [(103)], for which the pest or weed control at 500 ppm in assay [4] was not below 90%.

For the compound `CN(C)C(=O)Sc1nsc(OCCCl)n1` [(67)], the pest or weed control at 500 ppm in assay [3] is not below 90%.

As to `O=C(Sc1nsc(Cl)n1)N1CCCC1` [(147)], the pest or weed control at 500 ppm in assay [2] was not below 90%.

In the case of `CCCCOc1nc(SC(=O)N(C)C)ns1` [(5)], the pest or weed control at 500 ppm in assay [3] and in assay [1] (setting [5]) was not below 90% in each case.

Regarding `COCCOc1nc(SC(=O)N2CCCC2)ns1` [(243)], the pest or weed control at 500 ppm in assay [1] (setting [5]) was not below 90%.

For the compound `CN(C)C(=O)Sc1nsc(OC2CCOCC2)n1` [(17)], the pest or weed control at 500 ppm in assay [3], in assay [1] (setting [5]) and in assay [2] was not below 90% in each case.

For `CN(C)C(=O)Sc1nsc(OCc2ccc(F)c(C(F)(F)F)c2)n1` [(111)], the pest or weed control at 500 ppm in assay [3] is not below 90%.
